According to the supplement of paper PMC6045584:
± gives the standard deviation of the averaged measurements.

Experiments:
MK2206 = compound: NC1(c2ccc(-c3nc4ccn5c(=O)[nH]nc5c4cc3-c3ccccc3)cc2)CCC1 [MK2206]; assay: surviving fraction relative to DMSO-only wells; higher = less growth inhibition; conditions: exposure time: 5 days
How it was run: (§1)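 Tumour cell lines were seeded in log phase at 250–500 cells per well into 384-well plates. Starting 24 hours later, inhibitors were present continuously for five days at 0.5, 1, 5, 10, 50, 100, 500 and 1000 nM. Surviving fraction, from CellTiter-Glo luminescence, is normalised to the median of DMSO-only wells. Three screens per line were required, with replicate Pearson r >0.7 and median Z' >0.3 for a line to be kept.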

METHOTREXATE = compound: CN(Cc1cnc2nc(N)nc(N)c2n1)c1ccc(C(=O)N[C@@H](CCC(=O)O)C(=O)O)cc1 [METHOTREXATE]; assay: as above; conditions: exposure time: 5 days
How it was run: as §1

CAL51 BREAST
surviving fraction (MK2206; 0.5 nM): 0.986 ± 0.05 | surviving fraction (MK2206; 1 nM): 1.09 ± 0.079 | surviving fraction (MK2206; 5 nM): 1.06 ± 0.031 | surviving fraction (MK2206; 10 nM): 1.02 ± 0.035 | surviving fraction (MK2206; 50 nM): 0.996 ± 0.043 | surviving fraction (MK2206; 100 nM): 0.993 ± 0.072 | surviving fraction (MK2206; 500 nM): 0.731 ± 0.027 | surviving fraction (MK2206; 1000 nM): 0.56 ± 0.03 | surviving fraction (METHOTREXATE; 0.5 nM): 1.06 ± 0.039 | surviving fraction (METHOTREXATE; 1 nM): 1.02 ± 0.021 | surviving fraction (METHOTREXATE; 5 nM): 1.02 ± 0.035 | surviving fraction (METHOTREXATE; 10 nM): 0.962 ± 0.052 | surviving fraction (METHOTREXATE; 50 nM): 0.243 ± 0.0049 | surviving fraction (METHOTREXATE; 100 nM): 0.142 ± 0.015 | surviving fraction (METHOTREXATE; 500 nM): 0.0995 ± 0.0051 | surviving fraction (METHOTREXATE; 1000 nM): 0.09133 ± 0.00076

HCC38 BREAST
surviving fraction (MK2206; 0.5 nM): 1.36 ± 0.11 | surviving fraction (MK2206; 1 nM): 1.33 ± 0.26 | surviving fraction (MK2206; 5 nM): 1.36 ± 0.073 | surviving fraction (MK2206; 10 nM): 1.32 ± 0.12 | surviving fraction (MK2206; 50 nM): 1.32 ± 0.23 | surviving fraction (MK2206; 100 nM): 1.15 ± 0.083 | surviving fraction (MK2206; 500 nM): 1.11 ± 0.048 | surviving fraction (MK2206; 1000 nM): 0.898 ± 0.12 | surviving fraction (METHOTREXATE; 0.5 nM): 1.39 ± 0.32 | surviving fraction (METHOTREXATE; 1 nM): 1.22 ± 0.13 | surviving fraction (METHOTREXATE; 5 nM): 1.37 ± 0.2 | surviving fraction (METHOTREXATE; 10 nM): 1.43 ± 0.15 | surviving fraction (METHOTREXATE; 50 nM): 1.05 ± 0.28 | surviving fraction (METHOTREXATE; 100 nM): 0.803 ± 0.038 | surviving fraction (METHOTREXATE; 500 nM): 0.385 ± 0.086 | surviving fraction (METHOTREXATE; 1000 nM): 0.359 ± 0.032

JURKAT HAEMATOPOIETIC AND LYMPHOID TISSUE
surviving fraction (MK2206; 0.5 nM): 1 ± 0.013 | surviving fraction (MK2206; 1 nM): 1.03 ± 0.03 | surviving fraction (MK2206; 5 nM): 0.92 ± 0.016 | surviving fraction (MK2206; 10 nM): 0.987 ± 0.022 | surviving fraction (MK2206; 50 nM): 0.871 ± 0.0053 | surviving fraction (MK2206; 100 nM): 0.787 ± 0.025 | surviving fraction (MK2206; 500 nM): 0.471 ± 0.01 | surviving fraction (MK2206; 1000 nM): 0.274 ± 0.0046 | surviving fraction (METHOTREXATE; 0.5 nM): 1.02 ± 0.012 | surviving fraction (METHOTREXATE; 1 nM): 1.02 ± 0.035 | surviving fraction (METHOTREXATE; 5 nM): 1.02 ± 0.03 | surviving fraction (METHOTREXATE; 10 nM): 0.404 ± 0.012 | surviving fraction (METHOTREXATE; 50 nM): 0.036 ± 0.001 | surviving fraction (METHOTREXATE; 100 nM): 0.0293 ± 0.0015 | surviving fraction (METHOTREXATE; 500 nM): 0.0293 ± 0.00058 | surviving fraction (METHOTREXATE; 1000 nM): 0.031

HCC1954 BREAST
surviving fraction (MK2206; 0.5 nM): 1.06 ± 0.16 | surviving fraction (MK2206; 1 nM): 0.988 ± 0.088 | surviving fraction (MK2206; 5 nM): 1.14 ± 0.14 | surviving fraction (MK2206; 10 nM): 1.18 ± 0.13 | surviving fraction (MK2206; 50 nM): 0.896 ± 0.035 | surviving fraction (MK2206; 100 nM): 0.9938 ± 0.0039 | surviving fraction (MK2206; 500 nM): 0.482 ± 0.082 | surviving fraction (MK2206; 1000 nM): 0.304 ± 0.0067 | surviving fraction (METHOTREXATE; 0.5 nM): 1.26 ± 0.04 | surviving fraction (METHOTREXATE; 1 nM): 1.16 ± 0.024 | surviving fraction (METHOTREXATE; 5 nM): 1.42 ± 0.14 | surviving fraction (METHOTREXATE; 10 nM): 1.3 ± 0.18 | surviving fraction (METHOTREXATE; 50 nM): 1.17 ± 0.11 | surviving fraction (METHOTREXATE; 100 nM): 0.997 ± 0.16 | surviving fraction (METHOTREXATE; 500 nM): 1.09 ± 0.13 | surviving fraction (METHOTREXATE; 1000 nM): 0.849 ± 0.18

MDAMB453 BREAST
surviving fraction (MK2206; 0.5 nM): 1.1 ± 0.093 | surviving fraction (MK2206; 1 nM): 1.08 ± 0.039 | surviving fraction (MK2206; 5 nM): 1.11 ± 0.041 | surviving fraction (MK2206; 10 nM): 1.15 ± 0.035 | surviving fraction (MK2206; 50 nM): 1.12 ± 0.072 | surviving fraction (MK2206; 100 nM): 0.846 ± 0.013 | surviving fraction (MK2206; 500 nM): 0.327 ± 0.054 | surviving fraction (MK2206; 1000 nM): 0.266 ± 0.019 | surviving fraction (METHOTREXATE; 0.5 nM): 1.04 ± 0.088 | surviving fraction (METHOTREXATE; 1 nM): 1.06 ± 0.025 | surviving fraction (METHOTREXATE; 5 nM): 1.12 ± 0.068 | surviving fraction (METHOTREXATE; 10 nM): 1.04 ± 0.038 | surviving fraction (METHOTREXATE; 50 nM): 0.966 ± 0.024 | surviving fraction (METHOTREXATE; 100 nM): 0.757 ± 0.028 | surviving fraction (METHOTREXATE; 500 nM): 0.655 ± 0.039 | surviving fraction (METHOTREXATE; 1000 nM): 0.66 ± 0.018

93VU HEADNECK
surviving fraction (MK2206; 0.5 nM): 1.06 ± 0.076 | surviving fraction (MK2206; 1 nM): 1.07 ± 0.14 | surviving fraction (MK2206; 5 nM): 1.1 ± 0.093 | surviving fraction (MK2206; 10 nM): 1.15 ± 0.048 | surviving fraction (MK2206; 50 nM): 1.02 ± 0.045 | surviving fraction (MK2206; 100 nM): 0.999 ± 0.11 | surviving fraction (MK2206; 500 nM): 0.789 ± 0.085 | surviving fraction (MK2206; 1000 nM): 0.649 ± 0.038 | surviving fraction (METHOTREXATE; 0.5 nM): 1.03 ± 0.099 | surviving fraction (METHOTREXATE; 1 nM): 1.08 ± 0.091 | surviving fraction (METHOTREXATE; 5 nM): 1.16 ± 0.11 | surviving fraction (METHOTREXATE; 10 nM): 1.18 ± 0.063 | surviving fraction (METHOTREXATE; 50 nM): 0.854 ± 0.081 | surviving fraction (METHOTREXATE; 100 nM): 1.02 ± 0.051 | surviving fraction (METHOTREXATE; 500 nM): 0.702 ± 0.049 | surviving fraction (METHOTREXATE; 1000 nM): 0.671 ± 0.018

SUM159 BREAST
surviving fraction (MK2206; 0.5 nM): 1.08 ± 0.04 | surviving fraction (MK2206; 1 nM): 1.093 ± 0.0081 | surviving fraction (MK2206; 5 nM): 1.07 ± 0.024 | surviving fraction (MK2206; 10 nM): 1.11 ± 0.03 | surviving fraction (MK2206; 50 nM): 1.06 ± 0.015 | surviving fraction (MK2206; 100 nM): 1.08 ± 0.02 | surviving fraction (MK2206; 500 nM): 1.09 ± 0.029 | surviving fraction (MK2206; 1000 nM): 1.08 ± 0.018 | surviving fraction (METHOTREXATE; 0.5 nM): 1.1 ± 0.027 | surviving fraction (METHOTREXATE; 1 nM): 1.09 ± 0.036 | surviving fraction (METHOTREXATE; 5 nM): 1.1 ± 0.049 | surviving fraction (METHOTREXATE; 10 nM): 1.09 ± 0.029 | surviving fraction (METHOTREXATE; 50 nM): 1.03 ± 0.038 | surviving fraction (METHOTREXATE; 100 nM): 0.951 ± 0.018 | surviving fraction (METHOTREXATE; 500 nM): 0.884 ± 0.013 | surviving fraction (METHOTREXATE; 1000 nM): 0.897 ± 0.02
